Tests used:
NHDF cells = assay: collagen assay: collagen production level of NHDF cells (Sircol Soluble Collagen Assay Kit); assay type: cell-based, human; conditions: for concentration dependence of the action of enhancing collagen production (FIG. 3) / order of the levels of action of enhancing collagen production next to 10-HDA (FIG. 3): 0.02 to 1.5 mM fatty acid with 50 μM AA2G; for action of enhancing collagen production (FIG. 1): 5 days culture; for action of enhancing the collagen production by L-ascorbic acid: used in combination with L-ascorbic acid
Experimental: NHDF cells, a human fibroblast, were seeded in a 96-well microplate (commercialized by Becton Dickinson, N.J., USA) with […] (designated as “DMEM medium” hereinafter, commercialized by Nissui Pharmaceutical Co., Ltd., Tokyo, Japan)(pH 7.1 to 7.4), supplemented with 10% (v/v) fetal calf serum and an adequate amount of penicillin, to give a cell density of 2.5×10^4 cells/well, and incubated at 37° C. for 24 hours under a 5% (v/v) CO2 condition. Thereafter, the supernatant was replaced with 200 μl of a DMEM medium supplemented with a sample having a prescribed concentration and/or 50 μM of L-ascorbic acid 2-glucoside (a product name of “AA2G” with a purity of 98.0% or over, produced by Hayashibara Biochemical Laboratories, Inc., Okayama, Japan), and further cultured for another five days. After completion of the culture, the collagen production level from cells in each well of the microplate was quantified by using “Sircol™ Soluble Collagen Assay Kit”, commercialized by Biocolar Ltd., Northern Ireland.
The action of enhancing the collagen production by 10-HDA was examined by the collagen assay shown in Experiment 1. In the collagen assay, 150 μg/ml of 10-HDA and/or a DMEM medium containing 50 μM of the same AA2G as used in Experiment 1 were used to examine the action of enhancing the collagen production by 10-HDA. As a control, there were provided two systems with 50 μM of AA2G or a DMEM medium free of AA2G, both of which were free of sample. The results are in FIG. 1.
The relationship between the concentration of 10-HDA and the action of enhancing collagen production was also studied. In the collagen assay, using a DMEM medium containing 0 to 300 μg/ml of 10-HDA as a sample and 50 μM of AA2G, the action of enhancing the collagen production by 10-HDA was examined. As a control, a DMEM medium containing 50 μM of AA2G free of sample was provided. The results are in FIG. 2.
The results are in FIG. 3.
To examine the influence of 10-HDA on the action of enhancing the collagen production by L-ascorbic acid or AA2G, the following experiment was conducted: In the collagen assay shown in Experiment 1, the levels of collagen production in cell culture by L-ascorbic acid or 10-HDA were compared and analyzed using a DMEM medium containing as a sample 0, 0.1, 0.2 or 0.5 mg/ml of 10-HDA and 50 μM of L-ascorbic acid or AA2G as L-ascorbic acids in terms of L-ascorbic acid, and another DMEM medium containing as a sample 0, 0.1, 0.2 or 0.5 mg/ml of 10-HDA but free of L-ascorbic acids. The results are in FIG. 4.

[1] = system: TGF-β production in human fibroblasts (NHDF cells); assay: TGF-β production in human fibroblasts (TGF-β1 Emax ImmunoAssay System); assay type: cell-based; conditions: for enhancement of TGF-β production: concrete data not shown; for TGF-β production level: 24 hours, culture supernatant
Experimental: NHDF cells, a human fibroblast, commercialized by Kurabo Industries Ltd., Okayama, Japan, were seeded in 96-well microplates (commercialized by Becton Dickinson, N.J., USA) with a DMEM medium supplemented with 10% (v/v) fetal calf serum to give a cell density of 2.5×10^4 cells/well, and incubated for 24 hours under a 5% (v/v) CO2 condition. Thereafter, the supernatant in each microplate was removed, replaced with a fresh DMEM medium containing 0, 0.5 or 1.5 mM of 10-HDA and 0.2 μg/ml of AA2G, and cultured for 24 hours. After completion of the culture, the level of TGF-β in a supernatant of each well of the microplates was quantified by using “TGF-β1 E MAX IMMUNO ASSAY SYSTEM”, commercialized by Promega Corp., Wis., USA, and the data were statistically handled.

Structure (SMILES): CCCCCCCC=CC(=O)O [2-decenoic acid]
- concentration dependence of the action of enhancing collagen production (FIG. 3) (NHDF cells): roughly in a concentration dependent manner
- order of the levels of action of enhancing collagen production next to 10-HDA (FIG. 3) (NHDF cells): in the order of 10-hydroxydecanoic acid, 2-decenoic acid, decanoic acid, and sebacic acid
- enhancement of TGF-β production [1]: also enhance TGF-β production

Structure (SMILES): O=C(O)C=CCCCCCCCO [10-HDA, 10-hydroxy-2-decenoic acid]
- action of enhancing collagen production (FIG. 4) (NHDF cells; 0, 0.1, 0.2 or 0.5 mg/ml 10-HDA in the presence of 50 μM AA2G (in terms of L-ascorbic acid)): action of enhancing collagen production in a concentration dependent manner
- action of enhancing collagen production (FIG. 4) (NHDF cells; 0, 0.1, 0.2 or 0.5 mg/ml 10-HDA in the presence of 50 μM L-ascorbic acid): action of enhancing collagen production in a concentration dependent manner
- concentration dependence of the action of enhancing collagen production (FIG. 2) (NHDF cells; 0 to 300 μg/ml 10-HDA with 50 μM AA2G): concentration-dependent action of enhancing collagen production
- action of enhancing collagen production (FIG. 1) (NHDF cells; 150 μg/ml 10-HDA in combination with 50 μM AA2G): distinct action of enhancing collagen production
- action of enhancing collagen production (FIG. 1) (NHDF cells; 150 μg/ml 10-HDA, absence of AA2G): did not show the action of enhancing collagen production
- action of enhancing collagen production (FIG. 3) (NHDF cells; 0.02, 0.06, 0.17, 0.5 or 1.5 mM fatty acid with 50 μM AA2G): significantly high action of enhancing collagen production
- action of enhancing collagen production with AA2G relative to that attained with L-ascorbic acid (FIG. 4) (NHDF cells; 10-HDA with 50 μM AA2G versus 50 μM L-ascorbic acid): about two-times higher
- action of inducing collagen production when used alone (NHDF cells; used alone, without L-ascorbic acid): did not show an action of inducing collagen production
- action of enhancing the collagen production by L-ascorbic acid (NHDF cells): exhibited an action of enhancing the collagen production by L-ascorbic acid
- action of enhancing the collagen production by L-ascorbic acid (NHDF cells; listed as Ingredient X): This result coincided with that of Ingredient X
- concentration giving maximum action of enhancing collagen production (FIG. 3) (NHDF cells; with 50 μM AA2G): ≥ 0.17 mM
- TGF-β production level ([1]; 0.5 mM 10-HDA with 0.2 μg/ml AA2G): 292 ± 68 pg/mL
- TGF-β production level ([1]; 1.5 mM 10-HDA with 0.2 μg/ml AA2G): 378 ± 74 pg/mL
- enhancement of TGF-β production in human fibroblasts ([1]; in the presence of AA2G, 0 to 1.5 mM): enhances the TGF-β production in human fibroblasts in a concentration dependent manner

Structure (SMILES): O=C(O)CCCCCCCCCO [10-hydroxydecanoic acid]
- concentration dependence of the action of enhancing collagen production (FIG. 3) (NHDF cells): roughly in a concentration dependent manner
- order of the levels of action of enhancing collagen production next to 10-HDA (FIG. 3) (NHDF cells): in the order of 10-hydroxydecanoic acid, 2-decenoic acid, decanoic acid, and sebacic acid
- enhancement of TGF-β production [1]: also enhance TGF-β production

Structure (SMILES): O=C1O[C@H]([C@@H](O)CO)C(O)=C1O[C@H]1O[C@H](CO)[C@@H](O)[C@H](O)[C@H]1O [AA2G, L-ascorbic acid 2-glucoside]
- action of enhancing collagen production of L-ascorbic acid derivatives used in combination with fatty acids (NHDF cells; in combination with fatty acids such as 10-HDA, concrete data not shown): more remarkable action of enhancing collagen production

Structure (SMILES): CCCCCCCCCC(=O)O [decanoic acid]
- enhancement of TGF-β production [1]: also enhance TGF-β production

Structure (SMILES): O=C(O)CCCCCCCCC(=O)O [sebacic acid]
- enhancement of TGF-β production [1]: also enhance TGF-β production
